The test system of series [1] is VEGF (vascular endothelial growth factor A). Put plainly: Expression of HIF-1 target gene VEGF (RT-PCR, HCT116). Format: cell-based, human. Here is the method: (§1) To investigate HIF-1 inhibition activity of the compound of the present invention, the inhibition of VEGF and EPO, two most representative HIF-1 target genes, by the compound of formula 1 prepared in example 1 was measured. Particularly, the colon cancer cell line HCT116 was used for the measurement as follows.
(§2) The human colon cancer cell line HCT116 was seeded in cell culture vessel at the density of 2×10^5 cell/ml, followed by culture for 24 hours. The cells were pretreated in hypoxic condition (oxygen 1%; nitrogen 94%; carbon dioxide 5%) for 4 hours to induce the accumulation of HIF-1α. The cells were treated with the compound of formula 1 prepared in example 1 at the concentrations of 0, 10, and 20 μM, followed by culture for 12 hours in hypoxic condition. Then, mRNA was extracted by using trizol. To compare the expression with that of HIF-1 target gene treated with the compound prepared in comparative example 1, the control was treated with the compound of comparative example 1 at the concentrations of 0, 10, 15, and 20 μM. From the extracted mRNA, cDNA was synthesized by using RT-PCR kit (Invitrogen). The amounts of mRNAs of the HIF-1α target genes VEGF (vascular endothelial growth factor A) and EPO (erythropoietin) were measured by using RT-PCR and real-time RT-PCR. […]

For the next series, the system named is EPO (erythropoietin). Put plainly: Expression of HIF-1 target gene EPO (RT-PCR, HCT116). Format: cell-based, human. The note with it: mRNA, HCT116, hypoxic condition, 0, 10, 20 μM; FIG. 5. On the procedure:
as §1, §2

The subject of series [2] is B16F10 melanoma cell line. Description: Angiogenesis inhibition activity in B16F10 tumor tissue. The series is classed as in vivo, mouse. Conditions: FIG. 7, FIG. 8. Here is the method: The following experiment was performed to investigate if the compound of formula 1 could inhibit angiogenesis along with the tumor growth.
(§3) Particularly, the experimental group composed of 5 female mice (C57BL) at 6 weeks was transplanted with B16F10 melanoma cell line. After the cancer cells were grown, the mice were treated with the compound of formula 1 via intraperitoneal injection at the dose of […] for 5 days. Inhibition of angiogenesis and the tumor growth were observed. In the meantime, the control group was treated with the mixed solution comprising 10% DMAC, 10% cremophor and 80% buffer (pH 10) every day. The comparative group was treated with topotecan at the dose of 2 mg/kg once every other day. Weight changes and the newly generated blood vessels were measured and the results are shown in Table 7, Table 8, FIG. 7, and FIG. 8. The tumor volume shown in Table 8 was calculated by the mathematical formula 1 of experimental example 4 and the inhibition rate was calculated by the mathematical formula 2 of experimental example 4.

In a further series the test system is HIF-1α. Put plainly: HIF-1α expression in tumor tissue (tumor tissue immune response experiment, Caki-1 model). The series is classed as in vivo, mouse. The note with it: Caki-1 tumor, optical microscope; FIG. 6. Here is the method: In addition, to investigate whether or not the anticancer activity shown in experimental example 5 was attributed to the decrease of HIF-1α expression, tumor tissue immune response experiment was performed.

Series [3] is described as follows: Mouse weight changes and symptoms, intraperitoneal administration (B16F10 angiogenesis experiment). The series is classed as in vivo. The note with it: for Mouse weight changes (%): ip, Example 1 20 mg/kg/day, topotecan 2 mg/kg/2 day. On the procedure: as §3
Series [4] is described as follows: Mouse weight changes and symptoms, intraperitoneal administration (B16F10 metastasis experiment). Conditions: for Mouse weight changes (%): ip, Example 1 20 mg/kg/day, topotecan 2 mg/kg/2 day. The series is classed as in vivo. On the procedure: Particularly, the experimental group composed of 6 female mice (C57BL) at 6 weeks was transplanted with B16F10 melanoma cell line. After the cancer cells were grown, the mice were treated with the compound of formula 1 via intraperitoneal injection at the dose of […] every day for 12 days. Inhibition of angiogenesis and the tumor growth were observed. In the meantime, the control group was treated with purified water every day. The comparative group was treated with topotecan at the dose of 2 mg/kg once every other day. Weight changes and cancer metastasis were measured and the results are shown in Table 9, Table 10, and FIG. 10.

Series [5] concerns human rectal cancer cell line HCT116. Put plainly: In vivo anticancer activity, intravenous injection, HCT116 rectal cancer in nude mice. On the set-up: species or system mouse. The note with it: Example 1 30 mg/kg/day, topotecan 2 mg/kg/day; for Tumor volume changes (mm^3): iv; for Inhibition rate (%) of tumor volume: vs control. Here is the method:
To evaluate the inhibition effect of the compound prepared in example 1 administered via intravenous injection on the growth of rectal cancer, in vivo anticancer activity in mouse was measured. Particularly, nude-mice were grouped for experimental and control groups (5 mice per group). Changes in body weight, tumor volume, and tumor weight were measured to evaluate in vivo anticancer activity.
Female nude mice at 6 weeks (BALB/c nu/nu, Charles River) were raised in a germ-free facility where temperature and humidity were maintained at proper levels during the whole experimental period. After anesthetizing each mouse, the human rectal cancer cell line HCT116 was transplanted in rectal tissues at the density of 4×10^7 cells/mouse, and then the opened rectum was sealed with surgical clips. After transplanting the rectal cancer cell line, the tumor volume was measured with calipers. When the tumor volume reached 54.5 mm^3, the compound of the present invention prepared in example 1 was treated thereto. Particularly, for the experimental group, the compound of example 1 was dissolved in the solvent composed of saline (80%), DMAC (10%), and tween 80 (10%), which is indicated as ‘solvent A’ hereinafter, at the concentration of 30 mg/kg. […] The control was treated with the solvent A only without the compound once a day via oral administration at the dose of 15 ml/kg. The comparative group was treated with the solvent A containing topotecan (2 mg/kg) via intravenous injection once a day at the dose of 15 ml/kg. The weight and the tumor volume were measured once a day on day 0, 2, 3, 4, 5, 6, and 8.
Tumor volume was calculated by the following mathematical formula 1. To investigate the toxicity according to the repeated intravenous administration of the compound of example 1, mouse weight changes were observed and presented in Table 3. Inhibition rate (%) in Table 4 was calculated by the following mathematical formula 2, which indicates the inhibition of tumor growth by the compound presented by %. Tumor Volume(mm^3)=(major axis length of tumor cells, mm)×(minor axis length of tumor cells, mm)^2×0.5 [Mathematical Formula 1] Inhibition Rate (%)=[(Tumor Volume of Control−Tumor Volume of Experimental Group)/(Tumor Volume of Control)]×100 [Mathematical Formula 2]

Regarding `COC(=O)c1cccc(NC(=O)/C=C/Oc2ccc(C34CC5CC(CC(C5)C3)C4)cc2)c1` [Example 1, (E)-3-[3-(4-Adamantan-1-yl-phenoxy)-acryloylamino]-benzoic acid methyl ester], in series [1] (internal control gene, HCT116, hypoxic condition), the “expression of GAPDH” value was “did not change”. The “expression of VEGF” value in series [1] (mRNA, HCT116, hypoxic condition, 0, 10, 20 μM, FIG. 5) is “inhibited the expressions of VEGF and EPO, the HIF-1 target genes, dose-dependently”. Also, in the series on EPO (erythropoietin), the “expression of EPO” value was “inhibited the expressions of VEGF and EPO, the HIF-1 target genes, dose-dependently”. In addition, the “reduction of angiogenesis compared with non-treated group” value in series [2] is on record as ~40%. The “HIF-1α expression in tumor tissue” value in the series with HIF-1α is reported as “significantly reduced”. For the same compound, in series [3] (20 mg/kg ip, C57BL mice), the “body weight on the final day of observation (day 5) compared with control” value is reported as “not significantly reduced”. The “symptoms during repeated intraperitoneal injection” value was “no specific symptom was observed” in series [3] (20 mg/kg ip, C57BL mice, 5 days) and “no specific symptom was observed” in series [4] (20 mg/kg ip, C57BL mice, 12 days). Besides, the “Mouse weight changes (%)” value worked out at 100.0 ± 0.0% in series [3] (day 0); 102.6 ± 1.6% in series [3] (day 2); 107.6 ± 3.9% in series [3] (day 5); 100.0 ± 0.0% in series [4] (day 0); 98.7 ± 3.4% in series [4] (day 2); 101.2 ± 4.6% in series [4] (day 5). Moreover, the “Mouse weight changes (%)” value in series [4] (day 7) worked out at 103.4 ± 3.8%; in series [4] (day 9) it was 107.6 ± 2.8%; in series [4] (day 12) it was 107.6 ± 3.3%. For the same compound, in series [4] (20 mg/kg ip, C57BL mice), the “body weight on the final day of observation (day 12) compared with control” value is “not significantly reduced”. Further, the “Tumor volume changes (mm^3)” value was 0.0 ± 0.0 mm^3 in series [5] (day 0); 19.4 ± 5.8 mm^3 in series [5] (day 2); 50.6 ± 20.9 mm^3 in series [5] (day 4); 114.3 ± 36.8 mm^3 in series [5] (day 6); 176.8 ± 50.0 mm^3 in series [5] (day 8). The “Inhibition rate (%) of tumor volume” value worked out at 35.3% in series [5] (day 2), 52.1% in series [5] (day 4), 47.0% in series [5] (day 6) and 45.7% in series [5] (day 8).
Turning to `CC[C@@]1(O)C(=O)OCc2c1cc1n(c2=O)Cc2cc3c(CN(C)C)c(O)ccc3nc2-1` [topotecan, reference compound], the “Mouse weight changes (%)” value in series [3] (day 0) is recorded as 100.0 ± 0.0%; in series [3] (day 2) it was 101.2 ± 0.6%; in series [3] (day 5), 103.7 ± 1.4%; in series [4] (day 0) it was 100.0 ± 0.0%; in series [4] (day 2) it was 101.0 ± 2.9%; in series [4] (day 5) it was 103.5 ± 6.1%. The “Mouse weight changes (%)” value is 104.0 ± 4.6% in series [4] (day 7), 104.3 ± 6.2% in series [4] (day 9) and 103.7 ± 5.5% in series [4] (day 12). Also, the “Tumor volume changes (mm^3)” value amounted to 0.0 ± 0.0 mm^3 in series [5] (day 0); 16.5 ± 3.9 mm^3 in series [5] (day 2); 44.3 ± 10.1 mm^3 in series [5] (day 4); 69.1 ± 13.2 mm^3 in series [5] (day 6); 93.1 ± 22.3 mm^3 in series [5] (day 8). The “Inhibition rate (%) of tumor volume” value in series [5] (day 2) was 44.9%; in series [5] (day 4), 58.1%; in series [5] (day 6), 67.9%; in series [5] (day 8) it was 71.4%.
